Data: US10428124B2, “Timothy grass allergens and methods and uses for immune response modulation” (LA JOLLA INSTITUTE FOR ALLERGY AND IMMUNOLOGY, priority 2012, dated 2019)

Experiments:
[1] = test system: PBMCs from TG allergic donors; experiment: IL-5 ELISPOT of TG extract-expanded PBMCs from TG allergic donors (peptide pools, single peptides, TG extract); format: cell-based, human
Experimental: Each donor was recruited following Institutional Review Board approval (Federal Wide Assurance number 00000032) and informed consent and assigned a study identification number. Donors were tested for allergen reactivity by skin prick tests to extracts from 32 common allergens. TG allergic donors were identified as having a skin reaction with a wheal of 5 mm in diameter to TG and a clinical history consistent with seasonal grass pollen allergy. Donors that had received specific immunotherapy were excluded. Non-allergic donors were identified as having negative skin prick tests to all allergens and no clinical history of allergy.
PBMCs were isolated by density gradient centrifugation from one unit of blood (˜450 ml) and cryo-preserved as described previously (12). For in vitro expansions, PBMCs were thawed and cultured in RPMI 1640 (Ω Scientific, Tarzana, Calif.) supplemented with 5% human AB serum (Cellgro, Herndon, Va.) at a density of 2×10^6 cells/ml in 24-well plates (BD Biosciences, San Jose, Calif.) and stimulated with TG pollen extract ([…]) (Greer, Lenoir, N.C.). Cells were kept at 37° C., 5% CO2 and additional IL-2 and IL-7 (10 U/ml, eBioscience, San Diego, Calif.) was added every 3 d after initial antigenic stimulation. On day 14, cells were harvested and screened for reactivity against TG-specific peptide pools (16-25 peptides/pool, averaging 20 peptides/pool). On day 17, peptides from positive pools were tested individually to identify the reactive epitopes.
The production of IL-5 from cultured PBMCs in response to antigen stimulation was measured by ELISPOT as described previously (12). Briefly, 1×10^5 cells/well were incubated with peptide, peptide pool or TG extract (10 μg/ml, 5 μg/ml and 50 μg/ml, respectively). After 24 h, cells were removed and plates were incubated with 2 μg/ml biotinylated anti-human IL-5 Ab (Mabtech) at 37° C. After 2 h, plates were washed and avidin-peroxidase-complex was added (Vector Laboratories, Burlingame, Calif.) for 1 h at RT. Peroxidase-conjugated spots were developed with 3-amino-9-ethylcarvazole solution (Sigma-Aldrich, St. Louis, Mo.). Criteria for peptide pool positivity were 100 SFCs/106 PBMCs, p 0.05, and a stimulation index (SI) 2. Criteria for individual peptides were the same except a minimum of 20 SFCs was counted as positive.

[2] = test system: human IgE; experiment: 2D gel immunoblot of TG extract with serum pool from 8 TG-allergic donors, IgE reactivity; format: binding; details: for Antibody reactivity IgE/IgG: IgE: IgE reactivity (E+/E−) of the source antigen of the peptide; for Antibody reactvity IgE/IgG: IgE: E− = not IgE reactive
Experimental: (§1) 2D DIGE (Difference Gel Electrophoresis) analysis. The complete 2D DIGE analysis was performed by Applied Biomics (Hayward, Calif., US). Briefly, TG extract was run on two 2D gels (3-10 pH range, 12% SDS-acrylamide gel), one was Coomassie blue stained, the other was blotted onto a nitrocellulose membrane. The membrane was then incubated with 5% dried milk in PBS/0.05% Tween to block non-specific binding and subsequently probed with a serum pool from 8 TG-allergic individuals at a dilution of 1:250. IgE and IgG binding was detected using goat anti-human IgE and rabbit anti-human IgG (Sigma-Aldrich, St. Louis, Mo.) and visualized using Cy2-conjugated donkey anti-goat IgG and Cy5-conjugated donkey […] IgG antibodies (Biotium, Hayward, Calif.).
(§2) Mass spectral protein identification was performed by Applied Biomics (Hayward, Calif., US). Briefly, spots of interest were selected from the 2D blot and the corresponding spots were identified on the stained SDS gel and cut out, washed several times to remove staining dye and other inhibitory chemicals. The spots were then dried to absorb maximum digestion buffer. Dried 2D gel spots were rehydrated in digestion buffer containing trypsin. Proteins were digested in-gel at 37° C. and then extracted from the gel with TFA extraction buffer. Subsequently the peptides were desalted using C-18 Zip-tips (Millipore) and mixed with CHCA matrix (alpha-cyano-4-hydroxycinnamic acid) and spotted into wells of a MALDI plate. Mass spectra of the peptides in each sample were obtained using an Applied Biosystems Proteomics Analyzer. The spectra were compared to the amino acid sequences encoded by putative ORFs from the de novo assembled TG pollen transcripts. […] The amino acid sequences encoded by these ORFs were clustered using a custom script at a sequence similarity threshold of 90% to group together highly similar protein sequences. These sequences are encoded by different transcripts from the current assembly, which could arise from splice variants, allelic variation between cells of TG pollen, and from gene families with multiple members. Amino acid sequences that form one cluster are assigned one putative protein ID (Table 1).

[3] = test system: human IgG; experiment: 2D gel immunoblot of TG extract with serum pool from 8 TG-allergic donors, IgG reactivity; format: binding; details: for Antibody reactivity IgE/IgG: IgG: IgG reactivity (G+/G−) of the source antigen of the peptide
Experimental: as §1, §2

[4] = test system: PBMCs from TG allergic donors; experiment: IFNg ELISPOT of TG extract-expanded PBMCs from TG allergic donors (single peptides); format: cell-based, human; details: T cell recognition in TG allergic patients; for Total response IFNg Events: number of response events
[5] = test system: PBMCs from TG allergic donors; experiment: as above; format: cell-based, human; details: for Total response IFNg Events: number of positive response events
[6] = test system: PBMCs from TG allergic donors; experiment: as above; format: cell-based, human; details: T cell recognition in TG allergic patients; for Total response IFNg Events: number of positive responses
[7] = test system: PBMCs from TG allergic donors; experiment: as above; format: cell-based, human; details: TG allergic patients; number of positive responses
[8] = test system: PBMCs from TG allergic donors; experiment: IFNg ELISPOT of TG extract-expanded PBMCs (single peptides); format: cell-based, human; details: for Total response IFNg Events: number of positive response events to the 15-mer peptide
[9] = IL-5, number of positive response events
[10] = T cell recognition in TG allergic patients
[11] = T cell recognition in TG allergic patients, number of response events
[12] = E+ / E− part of the cell, reactivity of the parent antigen
[13] = G+ / G− part of the cell, reactivity of the parent antigen
[14] = T cell recognition in TG allergic patients, number of positive responses
[15] = reactivity of the parent TG antigen, given per peptide
[16] = reactivity of the parent TG antigen, given per peptide, G− = not IgG reactive
[17] = number of positive response events to the 15-mer peptide
[18] = reactivity of the parent antigen
[19] = reactivity of the parent antigen, G+ = IgG reactive, G− = not

## 252 (SAPALRILRSFPSHS; Phleum pratense) [Peptide 252]
[1]; [9]
  Total response IL-5 Events: 1
[1]; IL-5, total SFC
  Total response IL-5 SFC: 97 SFC
[1]; [10]
  Total response IL-5 SFC: 97 SFC
[1]; [11]
  Total response IL-5 Events: 1
[2]; [12]
  Antibody reactvity IgE/IgG (IgE part): E+
[2]
  Antibody reactivity IgE/IgG: IgE: E+
[3]; [13]
  Antibody reactvity IgE/IgG (IgG part): G−
[3]
  Antibody reactivity IgE/IgG: IgG: G−
[4]
  Total response IFNg SFC: 143 SFC
  Total response IFNg Events: 1
[5]
  Total response IFNg Events: 1
  Total response IFNg SFC: 143 SFC

## 375 (EEAASTLPGLSSSTL; Phleum pratense) [Peptide 375]
[1]; [11]
  Total response IL-5 Events: 0
[2]
  Antibody reactivity IgE/IgG: IgE: E−
[3]
  Antibody reactivity IgE/IgG: IgG: G+
[4]
  Total response IFNg Events: 0

## 882 (DVYPTVCLPMCVCVL; Phleum pratense) [Peptide 882]
[1]; [14]
  Total response IL-5 Events: 0
[2]; [15]
  Antibody reactvity IgE/IgG: IgE: E−
[3]; [16]
  Antibody reactvity IgE/IgG: IgG: G−
[6]
  Total response IFNg Events: 0

## 26138 (KVINDRFGIVEGLMT; Phleum pratense) [Peptide 26138]
[1]; [9]
  Total response IL-5 Events: 0
[1]; [11]
  Total response IL-5 Events: 0
[2]; [12]
  Antibody reactvity IgE/IgG (IgE part): E+
[2]
  Antibody reactivity IgE/IgG: IgE: E+
[3]; [13]
  Antibody reactvity IgE/IgG (IgG part): G−
[3]
  Antibody reactivity IgE/IgG: IgG: G−
[4]
  Total response IFNg SFC: 37 SFC
  Total response IFNg Events: 1
[5]
  Total response IFNg Events: 1
  Total response IFNg SFC: 37 SFC

## 30285 (VFNDDIQGTASVVLA; Phleum pratense) [Peptide 30285]
[1]; [9]
  Total response IL-5 Events: 1
[1]; IL-5, total SFC
  Total response IL-5 SFC: 67 SFC
[1]; [10]
  Total response IL-5 SFC: 67 SFC
[1]; [11]
  Total response IL-5 Events: 1
[2]; [12]
  Antibody reactvity IgE/IgG (IgE part): E+
[2]
  Antibody reactivity IgE/IgG: IgE: E+
[3]; [13]
  Antibody reactvity IgE/IgG (IgG part): G−
[3]
  Antibody reactivity IgE/IgG: IgG: G−
[4]
  Total response IFNg Events: 0
[5]
  Total response IFNg Events: 0

## 82109 (GDLYIFESRAICKYA; Phleum pratense) [Peptide 82109]
[1]; 15-mer peptide
  Total response IL-5 SFC: 290 SFC
[1]; TG allergic patients, number of positive responses
  Total response IL-5 Events: 1
[1]; TG allergic patients, total spot-forming cells
  Total response IL-5 SFC: 290 SFC
[1]; [17]
  Total response IL-5 Events: 1
[2]; IgE reactivity of the parent antigen
  Antibody reactvity IgE/IgG (IgE part): E−
[2]; [18]
  Antibody reactvity IgE/IgG: IgE: E−
[3]; IgG reactivity of the parent antigen
  Antibody reactvity IgE/IgG (IgG part): G−
[3]; [19]
  Antibody reactvity IgE/IgG: IgG: G−
[7]
  Total response IFNg Events: 0
[8]
  Total response IFNg Events: 0

## 86231 (IMQLLRDNLTLWTSD; Phleum pratense) [Peptide 86231]
[1]; [14]
  Total response IL-5 Events: 0
[1]; [17]
  Total response IL-5 Events: 0
[2]; [15]
  Antibody reactvity IgE/IgG: IgE: E−
[2]; [18]
  Antibody reactvity IgE/IgG: IgE: E−
[3]; [16]
  Antibody reactvity IgE/IgG: IgG: G−
[3]; [19]
  Antibody reactvity IgE/IgG: IgG: G−
[6]
  Total response IFNg SFC: 73 SFC
  Total response IFNg Events: 1
[8]; 15-mer peptide
  Total response IFNg SFC: 73 SFC
[8]
  Total response IFNg Events: 1
